Key:
Assay type in all cases: functional
Medicago sativa [1] = experiment: Post-emergence herbicidal activity against Medicago sativa (alfalfa) assessed as growth inhibition at 1500 ai g/ha after 20 days by green house test
Amaranthus retroflexus [2] = experiment: Post-emergence herbicidal activity against Amaranthus retroflexus assessed as growth inhibition at 1500 ai g/ha after 20 days by green house test
[3] = system: Brassica rapa subsp. oleifera; experiment: Post-emergence herbicidal activity against Brassica rapa subsp. oleifera Si Yue Man assessed as growth inhibition at 1500 ai g/ha after 20 days by green house test
Digitaria sanguinalis [4] = experiment: Post-emergence herbicidal activity against Digitaria sanguinalis (hairy crabgrass) assessed as growth inhibition at 1500 ai g/ha after 20 days by green house test
Echinochloa crus-galli [5] = experiment: Post-emergence herbicidal activity against Echinochloa crus-galli (barnyard grass) assessed as growth inhibition at 1500 ai g/ha after 20 days by green house test
Medicago sativa [6] = experiment: Pre-emergence herbicidal activity against Medicago sativa (alfalfa) assessed as growth inhibition at 1500 ai g/ha after 20 days by green house test
Amaranthus retroflexus [7] = experiment: Pre-emergence herbicidal activity against Amaranthus retroflexus assessed as growth inhibition at 1500 ai g/ha after 20 days by green house test
[8] = system: Brassica rapa subsp. oleifera; experiment: Pre-emergence herbicidal activity against Brassica rapa subsp. oleifera Si Yue Man assessed as growth inhibition at 1500 ai g/ha after 20 days by green house test
Digitaria sanguinalis [9] = experiment: Pre-emergence herbicidal activity against Digitaria sanguinalis (hairy crabgrass) assessed as growth inhibition at 1500 ai g/ha after 20 days by green house test
Echinochloa crus-galli [10] = experiment: Pre-emergence herbicidal activity against Echinochloa crus-galli (barnyard grass) assessed as growth inhibition at 1500 ai g/ha after 20 days by green house test

Measured: growth inhibition (GI)

COP(=O)(OC)C(OC(=O)COc1ccc(C(F)(F)F)cc1[N+](=O)[O-])c1cccc([N+](=O)[O-])c1 (stereo not given)
<=50%: Medicago sativa [1] | Amaranthus retroflexus [2] | [3] | Digitaria sanguinalis [4] | Echinochloa crus-galli [5] | Medicago sativa [6] | Amaranthus retroflexus [7] | [8] | Digitaria sanguinalis [9] | Echinochloa crus-galli [10]

COP(=O)(OC)C(OC(=O)COc1ccc([N+](=O)[O-])cc1)c1cccc([N+](=O)[O-])c1 (stereo not given)
<=50%: Medicago sativa [1] | Amaranthus retroflexus [2] | [3] | Digitaria sanguinalis [4] | Echinochloa crus-galli [5] | Medicago sativa [6] | Amaranthus retroflexus [7] | [8] | Digitaria sanguinalis [9] | Echinochloa crus-galli [10]

COP(=O)(OC)C(OC(=O)COc1ccccc1)c1ccccc1 (stereo not given)
<=50%: Medicago sativa [1] | Amaranthus retroflexus [2] | [3] | Digitaria sanguinalis [4] | Echinochloa crus-galli [5] | Medicago sativa [6] | Amaranthus retroflexus [7] | [8] | Digitaria sanguinalis [9] | Echinochloa crus-galli [10]

COP(=O)(OC)C(OC(=O)COc1cc(C)ccc1Cl)c1cccc([N+](=O)[O-])c1 (stereo not given)
<=50%: Medicago sativa [1] | Amaranthus retroflexus [2] | [3] | Digitaria sanguinalis [4] | Echinochloa crus-galli [5] | Medicago sativa [6] | Amaranthus retroflexus [7] | [8] | Digitaria sanguinalis [9] | Echinochloa crus-galli [10]

COP(=O)(OC)C(C)OC(=O)COc1ccc(Cl)c(C)c1 (stereo not given)
75%: Medicago sativa [6] | Amaranthus retroflexus [7] | Digitaria sanguinalis [9] | Echinochloa crus-galli [10]
<=50%: Digitaria sanguinalis [4] | Echinochloa crus-galli [5]
90%: [8]
50%: Medicago sativa [1] | Amaranthus retroflexus [2] | [3]

COP(=O)(COC(=O)COc1ccccc1)OC [(DIMETHOXYPHOSPHORYL)METHYL 2-PHENOXYACETATE]
<=50%: Medicago sativa [1] | Amaranthus retroflexus [2] | [3] | Digitaria sanguinalis [4] | Echinochloa crus-galli [5] | Medicago sativa [6] | Amaranthus retroflexus [7] | [8] | Digitaria sanguinalis [9] | Echinochloa crus-galli [10]

COP(=O)(COC(=O)COc1ccc(C(F)(F)F)cc1)OC
75%: Amaranthus retroflexus [2]
<=50%: Medicago sativa [1] | [3] | Digitaria sanguinalis [4] | Echinochloa crus-galli [5] | Medicago sativa [6] | Amaranthus retroflexus [7] | [8] | Digitaria sanguinalis [9] | Echinochloa crus-galli [10]

COP(=O)(OC)C(C)OC(=O)COc1cc(C)ccc1Cl (stereo not given)
50%: Digitaria sanguinalis [4]
<=50%: Medicago sativa [1] | Amaranthus retroflexus [2] | [3] | Echinochloa crus-galli [5] | Medicago sativa [6] | Amaranthus retroflexus [7] | [8] | Digitaria sanguinalis [9] | Echinochloa crus-galli [10]

COP(=O)(OC)C(OC(=O)COc1cccc(C(F)(F)F)c1)c1cccc([N+](=O)[O-])c1 (stereo not given)
<=50%: Medicago sativa [1] | Amaranthus retroflexus [2] | Digitaria sanguinalis [4] | Digitaria sanguinalis [9] | Echinochloa crus-galli [10]
50%: [3] | Echinochloa crus-galli [5] | Medicago sativa [6] | Amaranthus retroflexus [7] | [8]

COP(=O)(OC)C(C)OC(=O)COc1cccc(Cl)c1Cl (stereo not given)
50%: Amaranthus retroflexus [2]
<=50%: Medicago sativa [1] | [3] | Digitaria sanguinalis [4] | Echinochloa crus-galli [5] | Medicago sativa [6] | Amaranthus retroflexus [7] | [8] | Digitaria sanguinalis [9] | Echinochloa crus-galli [10]

COP(=O)(OC)C(C)OC(=O)COc1ccc(F)cc1 (stereo not given)
<=50%: Digitaria sanguinalis [4] | Echinochloa crus-galli [5] | Echinochloa crus-galli [10]
50%: Medicago sativa [1] | [3] | Amaranthus retroflexus [7]
75%: Amaranthus retroflexus [2] | Medicago sativa [6] | [8]
90%: Digitaria sanguinalis [9]

COP(=O)(OC)C(OC(=O)COc1c(Cl)cccc1Cl)c1cccc([N+](=O)[O-])c1 (stereo not given)
<=50%: Medicago sativa [1] | Amaranthus retroflexus [2] | [3] | Digitaria sanguinalis [4] | Echinochloa crus-galli [5] | Medicago sativa [6] | Amaranthus retroflexus [7] | [8] | Digitaria sanguinalis [9] | Echinochloa crus-galli [10]

COP(=O)(OC)C(C)OC(=O)COc1ccccc1F (stereo not given)
<=50%: Medicago sativa [1] | Amaranthus retroflexus [2] | [3] | Digitaria sanguinalis [4] | Echinochloa crus-galli [5] | Medicago sativa [6] | Amaranthus retroflexus [7] | [8] | Digitaria sanguinalis [9] | Echinochloa crus-galli [10]

COP(=O)(OC)C(C)OC(=O)COc1ccc(Cl)cc1[N+](=O)[O-] (stereo not given)
<=50%: Medicago sativa [1] | Amaranthus retroflexus [2] | [3] | Digitaria sanguinalis [4] | Echinochloa crus-galli [5] | Medicago sativa [6] | Amaranthus retroflexus [7] | [8] | Digitaria sanguinalis [9] | Echinochloa crus-galli [10]

COP(=O)(OC)C(OC(=O)COc1ccc(Cl)cc1Cl)c1cccc(Br)c1 (stereo not given)
50%: Echinochloa crus-galli [5] | Echinochloa crus-galli [10]
<=50%: Digitaria sanguinalis [4]
90%: Medicago sativa [1] | Amaranthus retroflexus [2] | [3] | Medicago sativa [6] | Amaranthus retroflexus [7] | [8] | Digitaria sanguinalis [9]

COP(=O)(OC)C(OC(=O)COc1ccccc1[N+](=O)[O-])c1ccccc1 (stereo not given)
<=50%: Medicago sativa [1] | Amaranthus retroflexus [2] | [3] | Digitaria sanguinalis [4] | Echinochloa crus-galli [5] | Medicago sativa [6] | Amaranthus retroflexus [7] | [8] | Digitaria sanguinalis [9] | Echinochloa crus-galli [10]

COP(=O)(OC)C(OC(=O)COc1cccc(C)c1C)c1ccccc1 (stereo not given)
75%: [3] | Medicago sativa [6] | Echinochloa crus-galli [10]
<=50%: Amaranthus retroflexus [2] | Digitaria sanguinalis [4] | Digitaria sanguinalis [9]
90%: [8]
50%: Medicago sativa [1] | Echinochloa crus-galli [5] | Amaranthus retroflexus [7]

Source: ChEMBL document CHEMBL3045592, “Studies of O,O-dimethyl α-(2,4-dichlorophenoxyacetoxy)ethylphosphonate (HW02) as a new herbicide. 1. Synthesis and herbicidal activity of HW02 and analogues as novel inhibitors of pyruvate dehydrogenase complex” (J Agric Food Chem, 2011)
